# Experimental data published in publication PMC10888688 (International Journal of Molecular Sciences, 2024).
# Entries after “also recorded” stand apart in the source; their conditions may differ. Ends that are not written are not given here.
# Assays:
# [1] = system: Enterococcus faecalis ATCC 29212; experiment: MIC, broth dilution, E. faecalis; type: cell-based; conditions: MH broth, overnight at 37 °C, peptide 0 to 16 μM, OD600, E. faecalis ATCC 29212
# Method: (§1) Typically, an overnight bacterial culture was grown to the mid-log phase on a shaker at 183 rpm, at 37 °C, and then diluted in 2X Mueller Hinton (MH) broth (Millipore-Sigma^TM, Saint Louis, MO, USA) to achieve a final OD of 0.002. In a 96-well plate, 100 μL of the diluted bacterial culture along with 100 μL of peptide, concentrations ranging from 0 μM to 16 μM, was added and incubated overnight at 37 °C. Peptide concentrations were estimated by UV absorbance at a wavelength of 274 nm using a molar extinction coefficient (ε) of 1420 M^−1 cm^−1. Bacterial growth inhibition was determined by absorbance of 96 well plates at OD600 nm using a Cytation spectrophotometer (Agilent, Santa Clara, CA, USA).
# [2] = system: human kidney cell line HEK 293T; experiment: MTS cell survival assay, HEK 293T; type: cell-based; conditions: OD490, overnight at 37 °C/5% CO2, Figure 1
# Method: (§2) Assays were conducted in complete media for cells Dulbecco’s Modified Eagle Medium (DMEM; Gibco; Waltham, MA USA, catalog number: 11995065) supplemented with 10% fetal bovine serum (FBS; Hyclone; Logan, UT, USA, catalog number: SV30160.03HI-1). […] All dose-response peptide dilutions were prepared in a U-bottom 96-well plate. 0.02 × 10^6 cells/50 µL of complete media were seeded overnight per well in a 96-well plate, and 105 µL of serum-free (sf) DMEM were added. Cells and peptides were incubated at 37 °C/5% CO2 overnight. Cell viability was checked using MTS assay and read after 30–45 min, and absorbance at OD490 was read using Tecan Infinite 200 Pro plate reader (Tecan, Mannedrof, Switzerland, CellTiter96®AQueous One Solution Cell Proliferation Assay (MTS); catalog number: G3580).
# [3] = system: Escherichia coli ATCC 25922; experiment: MIC, broth dilution, E. coli; type: cell-based; conditions: MH broth, overnight at 37 °C, peptide 0 to 16 μM, OD600, E. coli ATCC 25922
# Method: as §1
# [4] = system: liver cell line Hep G2; experiment: MTS cell survival assay, Hep G2; type: cell-based, human; conditions: OD490, overnight at 37 °C/5% CO2, Figure 1
# Method: as §2
# [5] = system: Streptococcus pyogen ATCC 19615; experiment: MIC, broth dilution, S. pyogenes; type: cell-based, Streptococcus pyogenes; conditions: MH broth, overnight at 37 °C, peptide 0 to 16 μM, OD600, S. pyogenes ATCC 19615
# Method: as §1
# [6] = target: T1, LptAm of E. coli (Escherichia coli, UniProt P0ADV1); experiment: LptAm binding by ITC
# T1 construct: Recombinant LptAm (residues 28–159) of E. coli; His-tag; made in house; host or cells: E. coli BL21
# [7] = system: Acinetobacter baumannii ATCC BAA-1798; experiment: MIC, A. baumannii; type: cell-based; conditions: A. baumannii ATCC BAA-1798; broth dilution, overnight at 37 °C, peptide 0 to 16 μM
# Method: as §1
# [8] = cited from earlier work
# Excerpt: Host defense AMPs contain a high potential to combat drug or multidrug-resistant bacterial pathogens. AMPs are evolutionary conserved molecules found in all kingdoms of life that are effective in fending off infections as a part of innate immunity. The broad-spectrum activity of AMPs provides vital lead molecules for the next generation of antibiotics. In particular, the ability of AMPs to kill Gram-negative bacteria can be exploited for the designing of new antibiotics against drug-resistant strains.
# [9] = system: periplasmic part of the β-taco domain of LptD; conditions: cited from earlier work
# Excerpt: (§3) In this work, we have investigated shorter variants of thanatin in terms of their antibacterial activity, atomic resol ...
# [10] = system: LptA and LptC complex; conditions: binding of LptA; cited from earlier work
# Excerpt: as §3
# [11] = system: Gram-negative bacteria; conditions: cited from earlier work
# Excerpt: (§4) Cationic AMPs are known ...
# [12] = system: outer membrane of Gram-negative bacteria; conditions: binding with negatively charged LPS; cited from earlier work
# Excerpt: as §4
# [13] = system: Gram-negative bacteria; conditions: cited from earlier work; remark: listed apart in the source
# Excerpt: Currently, viable antibiotics available to mitigate infections caused by drug-resistant Gram-negative bacteria are highly limited. Thanatin, a 21-residue-long insect-derived antimicrobial peptide (AMP), is a promising lead molecule for the potential development of novel antibiotics. […] As a mode of action, cationic thanatin efficiently permeabilizes the LPS-outer membrane and binds to the periplasmic protein LptAm to inhibit outer membrane biogenesis. […] In this work, we have investigated shorter variants of thanatin in terms of their antibacterial activity, atomic resol ... || Previous studies have shown that residues at the N-terminus of thanatin ([…]) can be dispensable for antimicrobial activity. By contrast, deletion of residues at the C-terminus of thanatin drastically reduces activity against Gram-negative bacteria. […] However, antibacterial activity was ...
# [14] = system: LptAm; conditions: truncated functional variant of LptA; cited from earlier work
# Excerpt: The 21-residue-long thanatin was isolated from the hemolymph of the bacteria-treated insect Podisus maculiventris. A single disulfide bond between residues Cys11 and […] stabilizes the β-hairpin structure of thanatin with a flexible N-terminus region. […] Cationic AMPs are known ...
compound,measurement,setting,value
CC[C@H](C)[C@H](NC(=O)[C@@H](NC(=O)[C@@H]1CCCN1C(=O)[C@@H](N)C(C)C)[C@@H](C)CC)C(=O)N[C@@H](Cc1ccc(O)cc1)C(=O)N[C@H]1CSSC[C@@H](C(=O)N[C@@H](CCC(N)=O)C(=O)N[C@@H](CCCNC(=N)N)C(=O)N[C@@H](Cc2ccccc2)C(N)=O)NC(=O)[C@H](CCCCN)NC(=O)[C@@H](CCCCN)NC(=O)[C@H]([C@@H](C)O)NC(=O)[C@H](CCCNC(=N)N)NC(=O)[C@H](CCCNC(=N)N)NC(=O)[C@H](CC(N)=O)NC1=O [VF16],MIC (EF),[1],>16 µM
same,"toxicity / cell survival, HEK 293T, in words",[2],did not show any detectable toxicity; also recorded: essentially non-toxic as both the cell lines demonstrate a high percentage of survival
same,MIC (EC),[3],0.5 µM
same,"toxicity / cell survival, Hep G2, in words",[4],did not show any detectable toxicity; also recorded: essentially non-toxic as both the cell lines demonstrate a high percentage of survival
same,MIC (SP),[5],1 µM
same,Kd,[6],0.25 µM
same,MIC (AB),[7],>16 µM
polymyxin B,"nephrotoxicity, in words",[8],nephrotoxicity
GSKKPVPIIYCNRRTGKCQRM (disulfide) [thanatin],"LptD binding, in words",[9],binds to the periplasmic part of the β-taco domain of LptD
same,"inhibition of LPS transport, in words",[10],disrupting LptA and LptC complex
same,"effect in animal models of sepsis and infections, in words",[11],lowering of Gram-negative bacterial loads and also neutralization of toxicity of LPS
same,"outer membrane permeabilization, in words",[12],efficient permeabilization of the outer membrane of Gram-negative bacteria
same,"activity against Gram-negative pathogens, in words (abstract)","[13]; Enterobacter group, e.g., E. coli and K. pneumoniae, background statement, no reference given",extremely potent
same,"activity against Gram-negative bacteria, in words",[13]; including drug-resistant strains of E. coli and K. pneumoniae,potent activity
same,"LptAm binding, in words",[14],high-affinity binding with LptAm
"thanatin analog with M21F substitution: thanatin analog with M21F substitution (GSKKPVPIIYCNRRTGKCQRF; ends and bridges not checked; cysteine pairing not given here; UniProt P55788 1-21, looked up, variant M21F)","antibacterial activity of M21F analog, in words",[13]; compared with thanatin,better antibacterial activity
